Tested on: mice
Assay: 2-phenyl-1,4-benzoquinone-induced writhing test in mice (Phenylquinone Writhing, PQW), analgesic activity
Format: in vivo
Source text: The compounds of Formula I of the present invention are useful as analgesic agents due to their ability to alleviate pain in mammals. […] Exptl. Biol. Med., 95, 729 (1957)].

## Cc1nnc2n1-c1ccccc1-c1c(Cl)c3ccccc3n1C2 [10-Chloro-1-methyl-4H-indolo[1,2-d][1,2,4]triazolo[4,3-a][1,4]benzodiazepin]
  Analgesic PQW, % Inhibition of Writhing at 20 mg/kg., s.c.: 51%

## CCC(=O)O[C@](Cc1ccccc1)(c1ccccc1)[C@H](C)CN(C)C [Propoxyphene, reference compound]
3.9 mg/kg
  Analgesic PQW, % Inhibition of Writhing (reference compound, at 3.9 mg/kg, s.c.): 50%

## Cc1nnc2n1-c1ccc(Cl)cc1-c1c(Cl)c3ccccc3n1C2 [10,12-Dichloro-1-methyl-4H-indolo[1,2-d][1,2,4]triazolo[4,3-a][1,4]benzodiazepine]
  Analgesic PQW, % Inhibition of Writhing at 20 mg/kg., s.c.: 32%

## Cc1nnc2n1-c1ccc(Cl)cc1-c1cc3ccccc3n1C2 [12-Chloro-1-methyl-4H-indolo[1,2-d][1,2,4]triazolo[4,3-a][1,4]benzodiazepin]
  Analgesic PQW, % Inhibition of Writhing at 20 mg/kg., s.c.: 46%

## Cc1nnc2n1-c1ccccc1-c1cc3ccccc3n1C2 [1-Methyl-4H-indolo[1,2-d][1,2,4]triazolo[4,3-a][1,4]benzodiazepine]
  Analgesic PQW, % Inhibition of Writhing at 20 mg/kg., s.c.: 37%
